Patent US5432064A, “Process for dephosphorylating linear polynucleotide substrate with prosphatase form aspergillus niger” (Board of Regents of the University of Nebraska, priority 1992, dated 1995)

System: Aspergillus niger heat-labile phosphatase (4-nitrophenylphosphatase), purified, strain NRRL-3
Assay: A. niger phosphatase activity assay with 4-NPP as substrate (formation of p-nitrophenol at 400 nm)
Format: biochemical
Description: A. niger phosphatase activity was routinely determined by monitoring, in a spectrophotometer set at an absorbance wavelength of 400 nm, the formation of p-nitrophenol generated by the hydrolysis of 4-NPP (purchased from Calbiochem). Non-enzymatic hydrolysis controls were routinely included. The phosphatase assay contained the following in a total volume of 1.0 ml: 8 mM 4-NPP; 25 mM Tris-HCl (pH 8.0); and 5 mM MgCl2. The reaction, which was initiated by addition of the crude, mycelium-free supernatant fluid mentioned above, was carried out at 30° C. in a Varian DMS 70 spectrophotometer with a wavelength bandpass of 2 nanometers. Molar absorptivity of 4-nitrophenol at pH 8.0 was 1.62×10^4 M^-1 cm^-1.
To further examine one of these potential substrates at a greater level of sensitivity, the enzyme was incubated with [gamma-^32 P]ATP under identical conditions and assayed for the liberation of ^32 Pi. No liberation above background was detected and hydrolysis of ATP appeared to occur at a rate less than one/ten-millionth of that observed with 4-NPP.
Prospective inhibitors were added to the standard assay with 4-NPP as substrate and inhibition was monitored and expressed as percent inhibition of the untreated sample (TABLE 3).

[1] = 1 mM inhibitor, standard assay with 4-NPP as substrate
[2] = 10 mM inhibitor, standard assay with 4-NPP as substrate
[3] = 1 mM inhibitor, incubated with the phosphatase for 15 minutes at room temperature prior to assay, 4-NPP as substrate

Compound | Inhibition (%) [1] | Inhibition (%) [2] | Inhibition (%) [3] | other results
[F-].[Na+] [sodium fluoride] | 22% | 80% |  | 
CCN1C(=O)C=CC1=O [N-ethylmaleimide] |  |  | 75% | 
O=P(O)(O)O [orthophosphate] |  | 39% |  | 
O=C(O)CI [iodoacetate] |  |  | 96% | 
O=P(O)(O)OP(=O)(O)O [PPi, inorganic pyrophosphate] | 4% | 56% |  | 
Nc1ncnc2c1ncn2[C@@H]1O[C@H](COP(=O)(O)OP(=O)(O)OP(=O)(O)O)[C@@H](O)[C@H]1O [ATP, adenosine triphosphate] |  |  |  | Ki (competitive inhibition of hydrolysis of 4-NPP, read-out: Ki for ATP): 1.3 mM
